In patent US20250197373A1, “SMALL MOLECULE COMPOUND OR SALT THEREOF OR SOLVATE OF THEM, GUANINE NUCLEOTIDE-BINDING PROTEIN G(Q) SUBUNIT ALPHA (GNAQ) INHIBITOR CONTAINING THE SAME AND METHOD FOR TREATING AND/OR PREVENTING CANCER” (INDUSTRIAL TECHNOLOGY RESEARCH INSTITUTE, priority 2023, published 2025):

What was measured:
Type in all cases: cell-based
MCF-7 GNAQ (T96S) cells = experiment: Inhibition of growth of mammary gland cancer cells MCF-7 GNAQ (T96S) (PrestoBlue); settings: Homo sapiens, MCF7, 168 h, 7 days culture, 2% fetal bovine serum, read-out: Inhibitory activity (evaluated by IC50)
Experimental: (§1) Human mammary gland cancer cells, MCF-7 cells and MCF-7 GNAQ (T96S) cells (MCF-7 cells expressing GNAQ (T96S) after GNAQ gene deletion) were cultured in MEM medium.
(§2) 1×10^3 of the cells mentioned above were seeded in a 96-well plate and cultured overnight (at least 16 hours) in a carbon dioxide incubator.
(§3) After overnight incubation, the supernatant was removed. Next, after 200 μL of cell culture medium (containing 2% fetal bovine serum) containing different concentrations of test compound was added to each well of the 96-well plate, the 96-well plate was placed in a 5% carbon dioxide incubator at 37° C. for 7 days further culture. After that, an additional 30 μL of diluted PrestoBlue™ Cell Viability Reagent (Catalog Number: A13261; Thermo Fisher Scientific) (4 μL stock solution and 26 μL culture medium) was added to each well of the 96-well plate and the reaction was continued for further about 1 hour.
(§4) Finally, the fluorescence value at the wavelength of 535/615 nm of each well was read with a plate enzyme immunoassay analyzer, and the inhibitory rate of the compound on mammary gland cancer cells were calculated using the following formula.
(§5) Moreover, the half maximal inhibitory concentration (IC50) of the compound on the growth of mammary gland cancer cells was calculated with the inhibitory rate of the compound on mammary gland cancer cells at each concentration through the online half maximal inhibitory concentration (IC50) calculation software, IC50 Calculator, provided by AAT Bioquest company on its website (https://www.aatbio.com/tools/ic50-calculator).
(§6) Finally, the inhibition of the compound on the growth of mammary gland cancer cells was evaluated by the calculated half maximal inhibitory concentration (IC50) of the compound on the growth of mammary gland cancer cells.
(§7) The inhibition of the compound on the growth of breast cancer cells was evaluated by the half maximal inhibitory concentration (IC50) of the compound (one of Compound 1 to Compound 15 prepared above) on the growth of mammary gland cancer cells through the human mammary gland cancer cell line MCF-7 and the human mammary gland cancer cell line MCF-7 GNAQ (T96S) expressing the mutated gene.

MCF-7 cells = experiment: Inhibition of growth of mammary gland cancer cells MCF-7 (PrestoBlue); settings: Homo sapiens, MCF7, 168 h, 7 days culture, 2% fetal bovine serum, read-out: Inhibitory activity (evaluated by IC50)
Experimental: as §1, §2, §3, §4, §5, §6, §7

GNAQ (T96S) = biological target: T1, GNAQ (T96S) (Homo sapiens, UniProt P50148, T96S); experiment: SRE luciferase reporter gene-HEK293 cell line, GNAQ (T96S); settings: Cell type T96S, 20% FBS induction, read-out: GNAQ inhibitory rate; for inhibition at 0.9 µM: analytical concentration 900 nM; for inhibition at 2.7 µM: analytical concentration 2,700 nM; for inhibition at 8.1 µM: analytical concentration 8,100 nM
T1 construct: BPS Bioscience (parental reporter cell line) 60406
T1 sequence (P50148 1-359 T96S): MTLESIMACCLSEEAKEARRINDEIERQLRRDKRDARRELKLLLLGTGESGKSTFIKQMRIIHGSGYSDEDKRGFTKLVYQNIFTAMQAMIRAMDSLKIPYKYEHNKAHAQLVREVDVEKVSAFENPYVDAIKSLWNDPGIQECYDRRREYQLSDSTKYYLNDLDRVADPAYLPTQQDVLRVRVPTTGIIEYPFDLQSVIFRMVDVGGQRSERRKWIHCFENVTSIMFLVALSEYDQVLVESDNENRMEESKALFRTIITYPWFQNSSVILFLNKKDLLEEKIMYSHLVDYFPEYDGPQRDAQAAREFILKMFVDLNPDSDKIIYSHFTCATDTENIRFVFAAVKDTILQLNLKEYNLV
Experimental: 7.5×10^4 SRE-293-GNAQ (WT) or SRE-293-GNAQ (T96S) cell lines were seeded in a 24-well plate and cultured in a carbon dioxide incubator at 37° C. SRE-293-GNAQ (WT) or SRE-293-GNAQ (T96S) cell lines was derived from additionally transfecting SRE Reporter—HEK293 Recombinant Cell Line (ERK Pathway) (Catalog number: 60406; BPS Bioscience) cells with an expression vector separately expressing GNAQ (WT) or GNAQ (T96S), and screening a stable expression cell line by the antibiotic, geneticin (type number 10131035; Thermo Fisher Scientific). GNAQ (WT) or GNAQ (T96) expression vector was derived from gene synthesis and point mutation modification of GenScript company's customized services.
After 48 hours of culture, the culture medium in the 24-well plate was replaced with minimal essential medium (MEM) containing only 0.1% fetal bovine serum (FBS) and the cells were cultured overnight.
After overnight culture, the compound to be tested was added to the cells and reacted for 2 hours, and the medium at this point was still MEM medium containing only 0.1% fetal bovine serum. After reacting with the compound to be tested for 2 hours, fetal bovine serum at a final concentration of 20% was added to the cells and reacted for at least 4 hours. After the reaction, the supernatant was removed. Next, 100 μL of cell lysis reagent CelLytic M Cell Lysis Reagent (Catalog number: C2978; Sigma) was added to the cells and aspirated repeatedly several times to form a cell lysate solution with the cells. The cell lysate solution was collected in a microcentrifuge tube and centrifuged at a high speed of 14,000 rpm for 5 minutes. After that, 30 μL of supernatant was taken out and placed in a 96-well white plate for luminescence analysis, and 30 μL of firefly luminescence analysis reagent (Catalog No. E1501; Promega) diluted 3-fold was added and mixed well, and then luminescence detection was performed with a plate enzyme immunoassay analyzer (ELISA reader) to evaluate the effect of the compound to be tested on MAPK signaling induced by GNAQ through the expression of the firefly luciferase reporter gene.
In order to confirm the effect of the compounds on MAPK signaling induced by GNAQ, the screened SRE-HEK293 cells capable of expressing exogenous GNAQ (WT) and GNAQ (T96S) genes were subjected to overnight serum starvation, and 2 hours before induction with 20% fetal bovine serum, the compound to be tested (one of Compound 1 to Compound 15 prepared above) was added to the cells, and after serum induction, the expression of the firefly luciferase reporter gene was measured. Through the above steps, the inhibition of the compound to be tested on GNAQ expression could be evaluated through the expression of the reporter gene in cells.

| Compound | IC50 (MCF-7 GNAQ (T96S) cells) | IC50 (MCF-7 cells) | inhibition at 0.9 µM (GNAQ (T96S)) | inhibition at 2.7 µM (GNAQ (T96S)) | inhibition at 8.1 µM (GNAQ (T96S)) |
| --- | --- | --- | --- | --- | --- |
| O=C(Nc1cccc(-c2ccnc(-c3ccnc(Cl)c3)n2)c1)Nc1cc(Cl)nc(Cl)c1 [Compound 1] | 310 to 2500 nM | 310 to 2500 nM | < 10% | 10 to 39% | > 70% |
| O=C(Nc1cccc(-c2ccnc(-c3cccc(C(F)(F)F)c3)n2)c1)Nc1cc(Cl)nc(Cl)c1 [Compound 2] | 310 to 2500 nM | 310 to 2500 nM | < 10% | 10 to 39% | > 70% |
| N#Cc1cccc(-c2nccc(-c3cccc(NC(=O)Nc4cc(Cl)nc(Cl)c4)c3)n2)c1 [Compound 3] | 310 to 2500 nM | 310 to 2500 nM | < 10% | 40 to 70% | > 70% |
| O=C(Nc1cccc(-c2ccnc(-c3ccc(F)c(F)c3)n2)c1)Nc1cc(Cl)nc(Cl)c1 [Compound 4] | 310 to 2500 nM | 310 to 2500 nM | < 10% | 10 to 39% | 40 to 70% |
| O=C(Nc1cccc(-c2ccnc(-c3cccc(C(F)(F)F)c3)n2)c1)c1cc(Cl)nc(Cl)c1 [Compound 5] | 310 to 2500 nM | 310 to 2500 nM | < 10% | < 10% | < 10% |
| O=C(Nc1ccc(-c2ccnc(-c3ccncc3)n2)cc1)Nc1ccc(Cl)c(C(F)(F)F)c1 [Compound 6] | 310 to 2500 nM | 310 to 2500 nM | 10 to 39% | 10 to 39% | 40 to 70% |
| O=C(Nc1ccc(-c2ccnc(-c3cccc(C(F)(F)F)c3)n2)cc1)Nc1cc(Cl)nc(Cl)c1 [Compound 7] | 310 to 2500 nM | 310 to 2500 nM | < 10% | 10 to 39% | 10 to 39% |
| O=C(Nc1ccc(-c2ccnc(-c3cccc(C(F)(F)F)c3)n2)cc1)Nc1ccc(Cl)c(C(F)(F)F)c1 [Compound 8] | 310 to 2500 nM | 310 to 2500 nM | < 10% | < 10% | 10 to 39% |
| O=C(Nc1ccc(-c2cccc(-c3cccc(C(F)(F)F)c3)n2)cc1)Nc1cc(Cl)nc(Cl)c1 [Compound 9] | 310 to 2500 nM | 310 to 2500 nM | < 10% | 10 to 39% | 40 to 70% |
| FC(F)(F)c1cccc(-c2cccc(-c3ccc(NC(=S)Nc4cc(Cl)nc(Cl)c4)cc3)n2)c1 [Compound 10] | 310 to 2500 nM | 310 to 2500 nM | < 10% | 40 to 70% | > 70% |
| N#Cc1cccc(-c2cccc(-c3ccc(NC(=S)Nc4cc(Cl)nc(Cl)c4)cc3)n2)c1 [Compound 11] | 310 to 2500 nM | 310 to 2500 nM | 10 to 39% | 40 to 70% | > 70% |
| O=C(Nc1ccc(-c2cccc(-c3ccncc3)n2)cc1)Nc1ccc(Cl)c(C(F)(F)F)c1 [Compound 12] | 310 to 2500 nM | 310 to 2500 nM | 10 to 39% | 40 to 70% | 40 to 70% |
| O=C(Nc1cccc(-c2cccc(-c3ccncc3)n2)c1)Nc1cc(Cl)nc(Cl)c1 [Compound 13] | 310 to 2500 nM | 310 to 2500 nM | 10 to 39% | 40 to 70% | > 70% |
| O=C(Nc1cccc(-c2cc(-c3cccc(C(F)(F)F)c3)ncn2)c1)Nc1cc(Cl)nc(Cl)c1 [Compound 14] | < 310 nM | < 310 nM | 10 to 39% | 10 to 39% | > 70% |
| O=C(Nc1ccc(-c2nc(-c3ccccc3)ncc2Cl)cc1)Nc1cc(Cl)nc(Cl)c1 [Compound 15] | < 310 nM | < 310 nM | < 10% | 10 to 39% | 40 to 70% |
